Reference: article PMC11056381, “Characterization and evaluation of cytotoxic and antimicrobial activities of cyclotides from Viola japonica” (Scientific Reports, 2024)
Values after ≈ are worked out from the molar mass of the structure shown. Structures can show the parent of a compound that is named as a salt. Where two headings read alike, the source gives them in different places. Residues, ends and D or L forms follow the SMILES beside them.

Key:
[1] = test system: Acinetobacter baumannii (ATCC19606); test: microbe, parasite or virus in culture
Description: (§1) Viba 11, originally discovered in Viola baoshanensis[39] and found in other plants such as Viola tricolor[40], Viola betonicifolia, and Viola philippica, lacks biological activity studies. […] All purified cyclotides underwent antibacterial testing against Gram-positive bacterium Staphylococcus aureus (CMCC(B)26003-2-10) and Bacillus subtilis (CMCC(B)63501), Gram-negative bacteria, including Acinetobacter baumannii (ATCC19606), Escherichia coli (CMCC(B)44102-2-6), and Salmonella paratyphi (CMCC(B)50094-2-9).
(§2) Bacterial fluids are cultured overnight at 37 °C. The next day, the bacterial liquids are diluted to a concentration of 10^6 CFU/ml. Prepare different concentrations of cyclotide drugs and kanamycin sulfate in advance, and sequentially add the drugs and bacterial liquid to the 96-well plate. Negative controls consisted of sterile water and bacterial liquid. The plate is cultured overnight at 37 °C and observe whether the solution remains clear to see the growth of the bacterial suspension. Each test was performed three times at least.

[2] = test system: Escherichia coli (CMCC(B)44102-2-6); test: microbe, parasite or virus in culture
Description: as §1, §2

[3] = test system: Bacillus subtilis (CMCC(B)63501); test: microbe, parasite or virus in culture
Description: as §1, §2

Acinetobacter baumannii = test: Time killing kinetics; type: cell-based; conditions: about 10^6 CFU/mL, LB, 37 °C, colony count
Description: In this study, we investigated the time-kill kinetics characteristics of plant cyclotides against bacteria. […] It is worth noting that due to experimental constraints, there was a slight discrepancy of a few minutes between theoretical 0 h and actual 0 h. […] Furthermore, we also conducted time-kill kinetics studies using vija 10 against B. subtilis.
Figure 4 (A) The Acinetobacter baumannii time killing kinetics of cycloviolacin O2 at concentration of 1 MIC, 2 MIC, 4 MIC and 8 MIC at 37 °C. (B) The Bacillus subtilis time killing kinetics of vija 10 at concentration of 1 MIC, 2 MIC, 4 MIC at 37 °C. Each test was performed three times at least.
Incubate A. baumannii and B. subtilis in fresh nutrient LB broth at 37 °C until logarithmic growth stage, then dilute to approximately 10^6 CFU/mL, and incubate with cycloviolacin O2 at concentrations of 1 MIC, 2 MIC, 4 MIC, 8 MIC with A. baumannii and vija 10 at concentrations of 1 MIC, 2 MIC, 4 MIC with B. subtilis respectively. Taking the mixture at time points of 0 h, 0.5 h, 1 h, 1.5 h and 2 h, dilute and coat it to solid medium for 24 h. Count the number of colonies on solid culture medium. Each test was performed three times at least. Plotting a line graph with time on the x-axis and bacterial survival on the y-axis using GraphPad Prism 8. Statistical analysis of bacterial viability at different time points to determine the bactericidal and bacteriostatic effects of cyclotides.

[4] = test system: THLE-3 (human hepatocytes cells); test: MTT cytotoxicity assay; type: cell-based; conditions: THLE-3 cells, 48 h incubation, mean ± SD of at least three repeats
Description: (§3) Five types of cells, namely A549 (human non-small cell lung cancer cells), T24 (human bladder cancer cells), 4T1 (mouse breast cancer cells), 7402 (human hepatocellular carcinoma cells), and THLE-3 (human hepatocytes cells), are selected for evaluating the cytotoxicity of viba 11, cycloviolacin O2, and vija 10 using the MTT (3-(4,5-dimethylthiazol-2-yl)-2,5-diphenyltetrazolium bromide) reagent.
(§4) To determine cell toxicity using MTT assay, cells are seeded in a 96-well plate and cultured for 24 h. After that, different concentrations of cyclotides are added to the cells and incubated for 48 h. MTT is then added to react with the cells, and after 4 h, the reaction is terminated by discarding the supernatant and adding dimethyl sulfoxide for resuspension. The absorbance at 570 nm is measured after 10 min of shaking at room temperature. Each test was performed three times at least. The data were analyzed using GraphPad Prism 8. During this process, the drug concentrations were transformed into logarithmic form with a base of 10 and plotted on the x-axis. Cell viability (%) = [A (cyclotides) − A (blank)]/[A (control) − A (blank)] × 100, which was represented on the y-axis. Using this method, we determined the IC50 value for each experiment, with each experiment repeated at least three times and the mean value calculated. The error was represented by the standard deviation of the IC50 obtained from three repetitions.

[5] = test system: 4T1 (mouse breast cancer cells); test: MTT cytotoxicity assay; type: cell-based; conditions: 4T1 cells, 48 h incubation, mean ± SD of at least three repeats
Description: as §3, §4

[6] = test system: T24 (human bladder cancer cells); test: MTT cytotoxicity assay; type: cell-based; conditions: 48 h incubation, mean ± SD of at least three repeats
Description: as §3, §4

[7] = test system: 7402 (human hepatocellular carcinoma cells); test: MTT cytotoxicity assay; type: cell-based; conditions: 7402 cells, 48 h incubation, mean ± SD of at least three repeats
Description: as §3, §4

[8] = test system: A549 (human non-small cell lung cancer cells); test: MTT cytotoxicity assay; type: cell-based; conditions: 48 h incubation, mean ± SD of at least three repeats
Description: as §3, §4

[9] = test system: Salmonella paratyphi (CMCC(B)50094-2-9); test: MIC, broth dilution in 96-well plate; type: cell-based; conditions: 10^6 CFU/ml, overnight 37 °C, visual clarity, performed at least three times
Description: (§5) Cycloviolacin O2, known for its antimicrobial, hemolytic, and insecticidal activities, has been more extensively investigated[4],[20],[36]–[38]. Viba 11, originally discovered in Viola baoshanensis[39] and found in other plants such as Viola tricolor[40], Viola betonicifolia, and Viola philippica, lacks biological activity studies. These two cyclotides and vija 10 are high in content and easy to purify, and cycloviolacin O2 can also be used as a positive control to conduct activity study. In addition, few vija12 and 31 were extracted for antibacterial experiments. All purified cyclotides underwent antibacterial testing against Gram-positive bacterium Staphylococcus aureus (CMCC(B)26003-2-10) and Bacillus subtilis (CMCC(B)63501), Gram-negative bacteria, including Acinetobacter baumannii (ATCC19606), Escherichia coli (CMCC(B)44102-2-6), and Salmonella paratyphi (CMCC(B)50094-2-9). […] In addition, the MICs of viba 11, cycloviolacin O2 and vija 10 against B. subtilis were respectively 5.4 μM, 2.1 μM and 14.3 μM (Table 1). […] Therefore, it is hypothesized that the lower antimicrobial activity of vija 10 may be attributed to the presence of only one Lys residue in loop 5.
as §2

[10] = test system: Staphylococcus aureus (CMCC(B)26003-2-10); test: MIC, broth dilution in 96-well plate; type: cell-based; conditions: 10^6 CFU/ml, overnight 37 °C, visual clarity, performed at least three times
Description: as §5, §2

[11] = Acinetobacter baumannii ATCC19606, 10^6 CFU/ml, 96-well plate, overnight 37 °C, visual clarity, performed at least three times
[12] = 10^6 CFU/ml, 96-well plate, overnight 37 °C, visual clarity, performed at least three times

SMILES: CC(C)C[C@@H]1NC(=O)[C@@H]2CCCN2C(=O)[C@H](Cc2ccc(O)cc2)NC(=O)[C@H](CCCCN)NC(=O)[C@H](C)NC(=O)[C@@H]2CSSC[C@@H]3NC(=O)[C@H]([C@@H](C)O)NC(=O)[C@H](CCC(=O)O)NC(=O)CNC(=O)[C@@H]4CSSC[C@H](NC(=O)CNC(=O)[C@@H]5CCCN5C(=O)[C@H]([C@@H](C)O)NC(=O)[C@H](Cc5ccccc5)NC(=O)[C@H](CSSC[C@H](NC1=O)C(=O)N[C@@H](CO)C(=O)N[C@@H](CCCCN)C(=O)N[C@@H](CC(N)=O)C(=O)NCC(=O)N[C@@H](CO)C(=O)N[C@@H](C(C)C)C(=O)N[C@@H]([C@@H](C)O)C(=O)NCC(=O)N4)NC(=O)[C@H](CCCCN)NC(=O)[C@H](Cc1ccccc1)NC(=O)[C@H](CCCCN)NC(=O)[C@H](Cc1ccccc1)NC3=O)C(=O)N[C@@H](CCCCN)C(=O)N2 [vija 31] (HELM PEPTIDE1{A.K.Y.P.L.C.S.K.N.G.S.V.T.G.C.G.E.T.C.F.K.F.K.C.F.T.P.G.C.K.C}$PEPTIDE1,PEPTIDE1,6:R3-24:R3|PEPTIDE1,PEPTIDE1,15:R3-29:R3|PEPTIDE1,PEPTIDE1,19:R3-31:R3|PEPTIDE1,PEPTIDE1,1:R1-31:R2$$$V2.0)
- MIC [1, 11]: 14.9 µM (≈ 48.9 µg/mL)

SMILES: CC[C@H](C)[C@@H]1NC(=O)[C@H](Cc2ccc(O)cc2)NC(=O)[C@H](CO)NC(=O)CNC(=O)[C@H](CC(N)=O)NC(=O)[C@H](CCCCN)NC(=O)[C@H](CCCCN)NC(=O)[C@@H]2CSSC[C@@H]3NC(=O)[C@H](CCCCN)NC(=O)[C@H](CC(C)C)NC(=O)[C@H](CCCCN)NC(=O)[C@H](C(C)C)NC(=O)[C@@H]4CSSC[C@H](NC(=O)[C@H]([C@@H](C)O)NC(=O)[C@H](CSSC[C@H](NC(=O)[C@H](CO)NC1=O)C(=O)NCC(=O)N[C@@H](CCC(=O)O)C(=O)N[C@@H]([C@@H](C)O)C(=O)N4)NC(=O)CNC(=O)[C@@H]1CCCN1C(=O)[C@H]([C@@H](C)O)NC(=O)[C@H](Cc1ccc(O)cc1)NC3=O)C(=O)N[C@@H]([C@@H](C)O)C(=O)N[C@@H](Cc1c[nH]c3ccccc13)C(=O)N1CCC[C@H]1C(=O)N[C@@H](C)C(=O)N2 [vija 12] (HELM PEPTIDE1{A.C.K.K.N.G.S.Y.I.S.C.G.E.T.C.V.K.L.K.C.Y.T.P.G.C.T.C.T.W.P}$PEPTIDE1,PEPTIDE1,2:R3-20:R3|PEPTIDE1,PEPTIDE1,11:R3-25:R3|PEPTIDE1,PEPTIDE1,15:R3-27:R3|PEPTIDE1,PEPTIDE1,1:R1-30:R2$$$V2.0)
- MIC [1, 11]: 14.9 µM (≈ 48 µg/mL)

SMILES: NC[C@H]1O[C@H](O[C@H]2[C@H](O)[C@@H](O[C@H]3O[C@H](CO)[C@@H](O)[C@H](N)[C@H]3O)[C@H](N)C[C@@H]2N)[C@H](O)[C@@H](O)[C@@H]1O [Kanamycin sulfate, reference compound]
- MIC [2]: 8 µM
- MIC ([1]; Acinetobacter baumannii, ATCC19606): 8 µM
- MIC [3]: 4 µM

SMILES: CC[C@H](C)[C@@H]1NC(=O)[C@H](C)NC(=O)[C@H](CO)NC(=O)[C@H](CO)NC(=O)[C@H]([C@@H](C)CC)NC(=O)[C@@H]2CSSC[C@@H]3NC(=O)[C@H](C(C)C)NC(=O)[C@H](CCCCN)NC(=O)[C@H](CO)NC(=O)[C@H](CCCCN)NC(=O)[C@@H]4CSSC[C@H](NC(=O)[C@H](CO)NC(=O)[C@H](CCC(=O)O)NC(=O)CNC(=O)[C@H](CSSC[C@H](NC(=O)CNC1=O)C(=O)N[C@@H](CO)C(=O)N4)NC(=O)[C@@H]1CCCN1C(=O)[C@H]([C@@H](C)CC)NC(=O)CNC(=O)[C@H](CC(N)=O)NC(=O)[C@H](CCCNC(=N)N)NC(=O)[C@H](Cc1ccc(O)cc1)NC3=O)C(=O)N[C@@H](C(C)C)C(=O)N[C@@H](Cc1c[nH]c3ccccc13)C(=O)N[C@@H]([C@@H](C)CC)C(=O)N1CCC[C@H]1C(=O)N2 [cycloviolacin O2, reference compound] (HELM PEPTIDE1{A.I.G.C.S.C.K.S.K.V.C.Y.R.N.G.I.P.C.G.E.S.C.V.W.I.P.C.I.S.S}$PEPTIDE1,PEPTIDE1,4:R3-18:R3|PEPTIDE1,PEPTIDE1,6:R3-22:R3|PEPTIDE1,PEPTIDE1,11:R3-27:R3|PEPTIDE1,PEPTIDE1,1:R1-30:R2$$$V2.0)
- time of treatment to complete eradication of A. baumannii (Acinetobacter baumannii; 4 MIC): 2 h
- time of treatment to complete eradication of A. baumannii (Acinetobacter baumannii; 8 MIC): 1.5 h
- IC50 [4]: 1210 ± 50 nM
- IC50 [5]: 162 ± 10 nM
- IC50 [6]: 1690 ± 160 nM
- IC50 [7]: 1332 ± 10 nM
- IC50 [8]: 149 ± 30 nM
- MIC [9]: > 16.8 µM
- MIC [10]: > 16.8 µM
- MIC [2, 12]: > 16.8 µM
- MIC [1, 11]: 4.2 µM (≈ 13.2 µg/mL)
- MIC [3, 12]: 2.1 µM (≈ 6.6 µg/mL)
